Laboratory results: patent US20090226909A1 (Tel HaShomer Medical Research Infrastructure and Services …, priority 2006, published 2009)
Several values for one entry are separate records, joined by “and”; a condition that tells them apart may be missing. Identical values can stand only once.

Experiments:
[1] = two patients with VKORC1 Asp36Tyr; Geisen 2005b; cited from earlier work
[2] = Effect of combined CYP2C9, VKORC1 and CALU genotypes on warfarin dose requirements (FIG. 2); assay type: in vivo, human; settings: dotted line of FIG. 2
Description: The combined genotypes are ordered according to the model proposed by Wallin R, et al., 2001, assuming the reduced VKORC1 activity associated with the VKORC1 6853G→C polymorphism and the reduced activity of CALU associated with the CALU 73G→A (R4Q) polymorphism and assigning equal weight to CYP2C9 and VKORC1 genotypes. […] CYP2C9=cytochrome P450 2C9; VKORC1=vitamin K epoxide reductase component 1; CALU=calumenin;

[3] = CYP2C9*1 (wild type) allele; Higashi 2002, Sconce 2005; cited from earlier work
[4] = Warfarin dose requirements in selected warfarin resistant and warfarin sensitive patients at stable therapeutic INR; assay type: in vivo, human
Experimental: Aliquots of fresh whole blood were drawn for INR determination and DNA extraction.
Data Analyses—Statistical analyses were performed using SPSS software (version 11.0, SPSS Inc.) and GB-STAT software package (version 8.0, Dynamic Microsystems Inc.). Relevant statistical applications are mentioned in the text, odds ratios (OR) are presented with 95% confidence limits, p value of <0.05 indicates statistical significance.

[5] = Warfarin dose requirements in 99 unselected warfarin-treated subjects at stable INR, by VKORC1 Asp36Tyr (D36Y) carrier status; assay type: in vivo, human
[6] = 23 selected resistant and sensitive subjects

In the case of CCC(c1ccccc1)c1c(O)c2ccccc2oc1=O (stereo not shown) [phenprocoumon], the “phenprocoumon requirement to maintain INR between 2.0 and 3.0” value [1] is listed as 40-50 mg per week.

In the case of CC(=O)CC(c1ccccc1)c1c(O)c2ccccc2oc1=O (stereo not shown) [warfarin], the “median weight-normalized warfarin dose” value [2] is listed as 4.8 mg/day, the “warfarin doses associated with CYP2C9*1 variant” value [3] is listed as 28-39 mg/week and the “INR maintained under warfarin” value [4, 6] is listed as 2.7±0.5. The “INR maintained under warfarin, range” value [4, 6] was 1.9-4.2, the “mean warfarin weekly dose” value ([4]; warfarin resistant group (N=15, subjects 1-15)) was 112.8±29 mg/week and 112.8 mg/week and the “mean warfarin weekly dose” value ([4]; warfarin sensitive group (N=8, subjects 16-23)) was 10.5±2.32 mg/week and 10.5 mg/week. The “INR maintained under warfarin, range” value ([5]; 99 unselected warfarin-treated subjects) was 1.9-4.2, the “INR maintained under warfarin” value ([5]; 99 unselected warfarin-treated subjects, stable INR) was 2.7±0.5 and the “warfarin dose requirements, range” value ([5]; carriers of VKORC1 Asp36Tyr (8/99), upper dose quartile) was 70-105 mg/week and > 70 mg/week. For the same compound, the “warfarin dose requirements, range” value ([5]; non-carriers of Asp36Tyr (n=91)) was 8-70 mg/week, the “mean warfarin dose required” value ([5]; non-carriers of Asp36Tyr (n=91), mean±SD) was 42.7±7.5 mg/week and the mean warfarin dose ([5]; whole unselected warfarin-treated group (N=99), stable INR) was 39.4±7.8 mg/week.
